Marks after values point to notes of the source that are not given here.
How the values were obtained:
[1] = Ferric reducing antioxidant power (FRAP); type: biochemical
Experimental: The measurement of FRAP was based on previous studies with slight modifications. A total of 180 uL of FRAP working solution (acetate buffer (pH 3.6): ferric chloride solution (20 mM): TPTZ solution (10 mM) = 10:1:1) was mixed with 20 μL of sample solution and incubated for 30 min at room temperature. The absorbance was measured at 593 nm. The standard curve was linear from 0 to 30 μg Trolox with an R^2 value of 0.9999 (Absorbance: y = 0.0943x + 0.0126, Figure S2I). The results are expressed as milligrams of TE/g dry weight.

α-amylase = target: α-amylase; parameters: method as in PMID 32344340; conditions: previously reported; cited from earlier work
[2] = DPPH radical scavenging assay; type: biochemical; conditions: main flavonoids and positive controls (Table 5)
Experimental: The scavenging ability of the free radical DPPH was investigated as described with slight modification. The sample solution (100 μL) and DPPH reagent (0.11 mg/mL, 100 μL) were mixed and incubated (30 min) at room temperature and in darkness. Then, a multi-detection microplate reader was used to measure the absorbance at 517 nm (As). The control group was mixed with DMSO and DPPH reagent in the same volume (A0). A formula was used to calculate the DPPH radical scavenging activity:DPPH radical scavenging activity (%) = [(A0 − As)/A0] × 100, where A0 is the absorbance of the control (untreated group), and As is the absorbance of the test sample. BHT and VC were used as the positive control.

[3] = Cupric reducing antioxidant capacity (CUPRAC); type: biochemical; conditions: main flavonoids (Table 5)
Experimental: The cupric ion reducing antioxidant capacity (CUPRAC) was measured according to the method of Drouet et al. with modifications. Briefly, 50 μL of the extract sample was mixed with 150 μL of the CUPRAC solution (composed of 10 mM CuCl2, 7.5 mM neocuproine, and 1 M NH4Ac buffer pH 7; ratio 1:1:1 (v/v/v)). After incubation for 15 min at room temperature, the absorbance value at 450 nm of the reaction mixture was measured. The results were reported as […] of Trolox equivalents (TE) per gram of extract (mg TE/g extract) (calibration curve from different concentrations: 0–70 μg/mL; Absorbance: y = 0.0279x + 0.0126, R² = 0.9997, Figure S2J).

[4] = ABTS radical scavenging assay; type: biochemical
Experimental: The ABTS radical scavenging activity of each fraction was measured based on the method with slight modifications. A 28 mM ABTS and a 9.6 mM potassium persulfate working solution were prepared, mixed in equal volumes, and the mixture was left to stand for 16 h at room temperature, protected from light. The working solution was diluted with EtOH to reach an absorbance of 0.70 ± 0.02 at 740 nm and used for further experiments. Different extracts or compounds (20 μL) concentrations were mixed with the working solution (180 μL). The mixture was incubated at room temperature for 15 min, and the absorbance was recorded at 734 nm (As). DMSO and ABTS reagents in the same volume were mixed to measure the absorbance as the control (A0). Then, the antioxidant activity of the mixture was determined by calculating the decrease using the following formula:ABTS radical inhibiting activity (%) = (A0 − As)/A0 × 100, where A0 is the absorbance of the control (untreated group), and As is the absorbance of the test sample. BHT and VC were used as the positive control.

[5] = Metal chelating activity on ferrous ions (ferrozine); type: biochemical; conditions: for Metal Chelating: main flavonoids (Table 5)
Experimental: The iron-chelating activity of each fraction was estimated by the method described by Sapatinha et al. with modifications. Briefly, 50 μL of each sample solution and 50 μL of 1 mM FeCl2 were mixed. Then, the reaction was initiated by adding 100 μL of 2.5 mM ferrozine solution. The mixture was kept at room temperature for 10 min. The absorbance of the resulting solution was measured at 562 nm. The results are expressed as milligrams of ethylenediaminetetraacetic acid (EDTA) equivalent per gram of extract (mg EDTAE/g extract) (calibration curve from different concentrations: 0–55 μg/mL; Absorbance: y = −0.0477x + 3.0616, R² = 0.9966, Figure S2K).

[6] = target: Saccharomyces cerevisiae α-glucosidase; assay: α-Glucosidase inhibitory activity assay (PNPG substrate); type: biochemical; conditions: main flavonoids and acarbose (Table 5)
Excerpt: (§1) Butylated hydroxytoluene (BHT) and ethylene diamine tetraacetic acid (EDTA) were purchased from Sigma-Aldrich (Shanghai, China). […] Methanol (MeOH), ethanol (EtOH), and dichloromethane (DCM) were purchased from Tianjin Fuyu (Tianjin, China). Ammonium acetate (NH4Ac), iodine (I2), potassium iodide (KI), soluble-starch, acetic acid (AcOH), n-butanol (nBuOH), and silica sand were obtained from Guoyao (Shanghai, China). The products were purified by flash column chromatography on 200–300 mesh silica gel purchased from Xinnuo Huagong (Yantai, Shandong, China). Methanol and acetonitrile of the high-performance liquid chromatography (HPLC) grade were purchased from Thermo Fisher Scientific (Waltham, MA, USA). DMSO-D6 was purchased from J&K (Beijing, China).
The α-glucosidase inhibition test was performed as previously described with some variations. PBS (0.1 M, pH = 6.8), α-glucosidase (5 U/mL), and PNPG (5 mM) were prepared and stored at 4 °C for further use. In total, 20 μL of different concentration sample solution (DMSO dissolved) or DMSO, 60 μL of PBS, and 20 μL of α-Glucosidase (0.5 U/mL) were added to a 96-well plate and incubated for 20 min at 37 °C. Then, 20 μL of PNPG (5 mM) solution was added and incubated for another 15 min at 37 °C. Subsequently, 80 μL of Na2CO3 (0.1 M) solution was added to terminate the reaction. […] Inhibition (%) was calculated based on absorbance with the following formula: Inhibitor (%) = (A0 − As)/A0 × 100%, where A0 is the absorbance of the blank group, and As is the absorbance of the test group. The IC50 values were calculated using GraphPad Prism 8.0 (GraphPad Software, Inc., La Jolla, CA, USA) to evaluate the α-glucosidase inhibition activity of the tested compounds.

[7] = target: T1, porcine pancreatic α-amylase (Sus scrofa, UniProt P00690); assay: α-Amylase inhibitory activity (starch-iodine); type: biochemical
T1 construct: purchased Shanghai Yuanye Biotechnology Co. (Shanghai, China)
T1 sequence (P00690 16-511): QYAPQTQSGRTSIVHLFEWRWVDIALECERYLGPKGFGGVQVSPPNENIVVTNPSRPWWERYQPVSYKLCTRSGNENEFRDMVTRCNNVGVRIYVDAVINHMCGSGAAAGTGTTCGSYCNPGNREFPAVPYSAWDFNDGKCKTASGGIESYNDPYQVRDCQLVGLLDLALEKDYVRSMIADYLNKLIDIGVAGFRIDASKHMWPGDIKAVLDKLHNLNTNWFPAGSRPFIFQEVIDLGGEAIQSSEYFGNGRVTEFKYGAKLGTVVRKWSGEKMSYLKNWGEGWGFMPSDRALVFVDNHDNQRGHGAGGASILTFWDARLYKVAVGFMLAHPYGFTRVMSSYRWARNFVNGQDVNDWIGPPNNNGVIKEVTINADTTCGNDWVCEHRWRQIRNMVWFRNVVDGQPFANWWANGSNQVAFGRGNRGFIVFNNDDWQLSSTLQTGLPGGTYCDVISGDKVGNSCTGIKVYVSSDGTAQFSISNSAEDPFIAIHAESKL
Excerpt: as §1

[8] = main flavonoids and positive control (Table 5)
[9] = main flavonoids and positive controls (Table 5)
[10] = solvent fractions and positive control, Trolox equivalent
[11] = solvent fractions and positive controls (Table 3 and text)

Row | Structure (SMILES) | DPPH IC50 [2] | ABTS IC50 [4, 9] | IC50 [6] | ABTS IC50 [4, 11] | IC50 [7] | FRAP [1, 8] | α-amylase inhibitory activity IC50 (α-amylase) | CUPRAC [3] | Metal Chelating [5] | FRAP [1, 10] | Fe2+ chelating capacity [5]
1 | O=c1cc(-c2ccc(O)cc2)oc2cc(O[C@@H]3O[C@H](CO)[C@@H](O)[C@H](O)[C@H]3O[C@@H]3OC[C@](O)(CO)[C@H]3O)cc(O)c12 [Apiin] | 7686.33 ± 200.18 ^a μM | 1055.33 ± 24.68 ^a μg/mL | 199 ± 14.9 µM | – | – | 5.97 ± 1.49 ^j mg TE/g | 1084 µg/mL | 25.26 ± 0.18 ^g mg TE/g | 17.15 ± 1.37 ^f mg EDTAE/g | – | –
2 | Cc1cc(C(C)(C)C)c(O)c(C(C)(C)C)c1 [BHT, Butylated hydroxytoluene, reference compound] | 39.13 ± 0.93 ^g μM | 5.72 ± 0.10 ^h,i μg/mL | – | 3.79 ± 0.04 ^l μg/mL | – | 406.39 ± 4.65 ^d mg TE/g | – | – | – | 406.39 mg TE/g | –
3 | COc1cc(-c2cc(=O)c3c(O)cc(O)cc3o2)ccc1O [Chrysoeriol] | 580.10 ± 35.54 ^f μM | 16.69 ± 0.55 ^f μg/mL | – | – | – | 337.96 ± 0.88 ^e mg TE/g | – | 947.43 ± 5.72 ^b mg TE/g | 36.49 ± 0.22 ^d mg EDTAE/g | – | 36.49 mg EDTA/g
4 | O=c1cc(-c2ccc(O)cc2)oc2cc(O)cc(O)c12 [Apigenin] | 1292.00 ± 31.00 ^d μM | 223.63 ± 10.35 ^c μg/mL | 80 ± 0.85 µM | – | – | 59.41 ± 0.24 ^h mg TE/g | – | 76.44 ± 1.83 ^f mg TE/g | 54.20 ± 1.28 ^c mg EDTAE/g | – | 54.20 mg EDTA/g
5 | O=C1O[C@H]([C@@H](O)CO)C(O)=C1O [VC, ascorbic acid, reference compound] | 5.32 ± 0.11 ^j μM | 3.79 ± 0.04 ^j μg/mL | – | 5.72 ± 0.10 ^l μg/mL | – | – | – | – | – | 406.39 ± 4.65 ^d mg TE/g | –
6 | O=c1cc(-c2ccc(O)c(O)c2)oc2cc(OC3OC(CO)C(O)C(O)C3OC3OCC(O)(CO)C3O)cc(O)c12 (stereo not drawn) [Graveobioside A] | 12.47 ± 0.08 ^h μM | 6.88 ± 0.05 ^h μg/mL | 104 ± 5.75 µM | – | – | 882.04 ± 0.43 ^b mg TE/g | – | 887.17 ± 8.95 ^c mg TE/g | 89.98 ± 0.42 ^a mg EDTAE/g | – | –
7 | O=c1cc(-c2ccc(O)c(O)c2)oc2cc(O)cc(O)c12 [Luteolin] | 4.65 ± 0.16 ^j μM | 4.58 ± 0.02 ^i,j μg/mL | 58.8 ± 2.97 µM | – | 2.11 ± 0.01 mM | 1025.12 ± 10.78 ^a mg TE/g | – | 1502.63 ± 15.92 ^a mg TE/g | 88.44 ±0.64 ^b mg EDTAE/g | – | 88.44 mg EDTA/g

Continued, in another order:

Row | DPPH IC50 [2] | ABTS IC50 [4, 9] | IC50 [6] | ABTS IC50 [4, 11] | IC50 [7] | Structure (SMILES) | FRAP [1, 8] | α-amylase inhibitory activity IC50 (α-amylase) | CUPRAC [3] | Metal Chelating [5] | FRAP [1, 10] | Fe2+ chelating capacity [5]
8 | 3266.33 ± 365.08 ^c μM | 29.43 ± 1.33 ^e μg/mL | 104 ± 1.85 µM | – | – | COc1cc(-c2cc(=O)c3c(O)cc(OC4OC(CO)C(O)C(O)C4OC4OCC(O)(CO)C4O)cc3o2)ccc1O (stereo not drawn) [Graveobioside B] | 166.87 ± 2.97 ^g mg TE/g | – | 328.10 ± 14.10 ^e mg TE/g | 21.32 ± 1.51 ^e mg EDTAE/g | – | –
9 | 9.28 ± 0.06 ^i μM | 9.41 ± 0.42 ^g μg/mL | 49.9 ± 2.85 µM | – | – | O=c1cc(-c2ccc(O)c(O)c2)oc2cc(O[C@@H]3O[C@H](CO)[C@@H](O)[C@H](O)[C@H]3O)cc(O)c12 [Luteolin-7-O-glucoside] | 830.71 ± 8.52 ^c mg TE/g | – | 955.05 ± 3.64 ^b mg TE/g | 8.51 ± 0.21 ^g mg EDTAE/g | – | –
10 | 4885.33 ± 56.01 ^b μM | 461.00 ± 11.04 ^b μg/mL | 77.5 ± 4.84 µM | – | 1.74 ± 0.04 mM | O=c1cc(-c2ccc(O)cc2)oc2cc(O[C@@H]3O[C@H](CO)[C@@H](O)[C@H](O)[C@H]3O)cc(O)c12 [Apigenin-7-O-Glucoside] | 25.90 ± 0.49 ^i mg TE/g | – | 33.45 ± 0.51 ^g mg TE/g | 5.69 ± 0.19 ^h mg EDTAE/g | – | –
11 | 848.23 ± 143.61 ^e μM | 46.64 ± 1.24 ^d μg/mL | 39.8 ± 1.05 µM | – | 1.86 ± 0.02 mM | COc1cc(-c2cc(=O)c3c(O)cc(O[C@@H]4O[C@H](CO)[C@@H](O)[C@H](O)[C@H]4O)cc3o2)ccc1O [Chrysoeriol-7-O-glucosid] | 203.35 ± 6.33 ^f mg TE/g | – | 495.51 ± 6.64 ^d mg TE/g | 8.22 ± 0.84 ^g mg EDTAE/g | – | –
